Measured values published in patent US20230248745A1, “SILVER ENHANCED CANNABINOID ANTIBIOTICS” (priority 2020, published 2023).
“Also recorded” adds a separate entry of the source. Where two headings read alike, the source gives them in different places.

Assays:
MRSA (USA300) = assay: Checkerboard assay, FICI of cannabinoid/silver combinations; type: cell-based, Methicillin-resistant Staphylococcus aureus
Experimental: (§1) Antibacterial growth was measured using a checkerboard analysis or qualitatively using agar plates with zones of inhibition. Viability was measured by the number of colony forming units (CFU) over time.
(§2) Using checkerboard analysis, the fractional inhibitory concentration index (FICI) was calculated for the 96-well plate test to illustrate synergy.
(§3) MRSA strain, USA300, was cultured in Luria-Bertani (LB) medium and inoculated at 37 C.
(§4) Cannabinoids or silver (expressed as the concentration of silver not the salt) were serially diluted 2-fold across the 96-well plate (Costar, catalog no. 3370) followed by addition of 100 μL of bacterial cultures with an OD600 of 0.0025. […] Wells turbidity were then analyzed using Varioskan™ microplate reader.
(§5) FICI was calculated in a checkerboard assay based on the turbidity of the wells. FIC of each agent was determined as the ratio of the minimal inhibitory concentration MIC of one agent in the presence of the other agent to the MIC of that agent alone. FICI was consequently computed as the sum of each agent's FIC.

E. coli strain K12 = assay: as above; type: cell-based, Escherichia coli; conditions: for FICI Silver Nanoparticles: Silver Nanoparticles in combination with the cannabinoid; for FICI Silver Sulfate: Silver Sulfate in combination with the cannabinoid
Experimental: as §1, §2
(§6) Escherichia coli (E. coli), strain K12, was cultured in Luria-Bertani (LB) medium and inoculated at 37 C.
as §4, §5

MRSA (strain USA300) [1] = assay: microbe, parasite or virus in culture; type: cell-based, Methicillin-resistant Staphylococcus aureus; conditions: Staphylococcus aureus; agent alone; silver expressed as silver; read-out: MIC
From the text: In therapeutic applications, synergy between active ingredients occurs when an observed combined therapeutic effect is greater than the sum of therapeutic effects of individual active ingredients, or a new therapeutic effect is produced that the active ingredients could not produce alone. […] In this context, the enhancement of therapeutic effect may take the form of increased efficacy or potency and/or decreased adverse effects. The synergistic effect may be mediated in whole or in part by the pharmacokinetics and/or pharmacodynamics of the active ingredients in a subject, so that the amount and proportion of the ingredients in the formulation may be synergistic in vivo. This in vivo synergy may be effected with a formulation that includes the active ingredients in amounts and proportions that are also synergistic in in vitro assays of efficacy. As used herein, the term “synergistically effective amounts” accordingly refers to amounts that are synergistic in vivo and/or in vitro. A numeric quantification of synergy is often expressed as a fractional inhibitory concentration index (FICI), which represents the sum of the fractional inhibitory concentrations (FICs) of each drug tested, where the FIC is determined for each drug by dividing the minimum inhibitory concentration (MIC, the lowest concentration of the drug which prevents visible growth of the bacterium in a standard in vitro assay—standard colorometric assay based on resazurin) of each drug when used in combination by the MIC of each drug when used alone. In very general terms, a FICI lower or higher than 1 indicates positively correlated activity (at least additive or potentiation) or an absence of positive interactions, respectively. […] (as described and used by Joung D K et al. and Rakoliya K et al.)
as §4

MRSA (strain USA300) [2] = assay: Kill-curve test (CFU over time); type: cell-based, Methicillin-resistant Staphylococcus aureus; conditions: for combined inhibitory effects compared to ½×MIC combinations: cannabinoid ¼×MIC + AgNPs
Experimental: as §1, §3
(§7) For each test tube, 1 mL of culture at OD600 of 0.005 was added to 1 mL of LB medium containing antibiotics to reach target sub-MIC concentrations of each compound. Samples of 100 μL was extracted from each tube at the determined time stamps followed by 10-fold serial dilutions. 10 μL of each dilution was then added on the LB agar plates that were subsequently incubated for 24 hours. Colonies were inspected and results quantified as log CFU/mL.

E. coli (strain K12) [3] = assay: Kill-curve test (CFU over time); type: cell-based, Escherichia coli; conditions: for growth inhibition: 1.25 mg/L and 0.625 mg/L (lower concentrations)
Experimental: as §1, §6, §7

MRSA (strain USA 300) = type: cell-based, Methicillin-resistant Staphylococcus aureus; conditions: for antibiotic effect of combination compared with silver nanoparticles alone: cannabinoid 2% + silver nanoparticles 2% silver w/w to PVA, films or coated catheter sections; for inhibition of bacterial growth (ring): single agent at 2% w/w to PVA, films and coated catheter sections, 24 hours
Experimental: PVA films were made by solvent casting using 33 μl drops of 2.5% PVA (88% hydrolyzed, 125 KDa molecular weight) mixed with CBC, CBG or CBGA (2% w/w to PVA). […] 3 mm sections of a urethral catheter (BARDEX® BARD®) were cut and coated with the same 33 μl volume of PVA/Silver/cannabinoid used to make films. Films and coated catheter sections were dried overnight in the dark. Five cavities were created in the LB agar plates containing MRSA (strain USA 300) at OD600 of 0.005. PVA films and catheters coated with PVA films were then placed in the cavities and moistened with 20 μL of deionized distilled water. Plates were incubated for 24 hours at 37° C.

MRSA = assay: Agar plate test of CBGA with silver nanoparticles; type: cell-based, Methicillin-resistant Staphylococcus aureus
Experimental: Four LB agar plates were prepared with MRSA culture at OD600 of 0.005. (FIG. 4) Each plate contained different concentrations of CBGA (no CBGA, ½ MIC, ¼ MIC, and ⅛ MIC). All plates were then divided into quadrants, each of which received 8 μL of AgNP at different concentrations from 20 mg/L serially diluted by 2-fold down to 2.5 mg/L in 0.2 mM sodium citrate.

E. coli (strain K12) [4] = conditions: agent alone
From the text: In therapeutic applications, synergy between active ingredients occurs when an observed combined therapeutic effect is greater than the sum of therapeutic effects of individual active ingredients, or a new therapeutic effect is produced that the active ingredients could not produce alone. […] In this context, the enhancement of therapeutic effect may take the form of increased efficacy or potency and/or decreased adverse effects. The synergistic effect may be mediated in whole or in part by the pharmacokinetics and/or pharmacodynamics of the active ingredients in a subject, so that the amount and proportion of the ingredients in the formulation may be synergistic in vivo. This in vivo synergy may be effected with a formulation that includes the active ingredients in amounts and proportions that are also synergistic in in vitro assays of efficacy. […] A numeric quantification of synergy is often expressed as a fractional inhibitory concentration index (FICI), which represents the sum of the fractional inhibitory concentrations (FICs) of each drug tested, where the FIC is determined for each drug by dividing the minimum inhibitory concentration (MIC, the lowest concentration of the drug which prevents visible growth of the bacterium in a standard in vitro assay—standard colorometric assay based on resazurin) of each drug when used in combination by the MIC of each drug when used alone. […]

[5] = Silver Nanoparticles in combination with the cannabinoid
[6] = Silver Nitrate in combination with the cannabinoid
[7] = cannabinoid with silver nanoparticles
[8] = cannabinoid with silver nitrate
[9] = cannabinoid with silver sulfate
[10] = cannabinoid ½×MIC + AgNP 1/160×MIC (0.25 mg/L)
[11] = cannabinoid ½×MIC + AgNP ⅛×MIC (5 mg/L)
[12] = cannabinoid ½×MIC + silver nitrate 1 mg/L
[13] = cannabinoid ½×MIC + silver nitrate 5 and 8 mg/L
[14] = 8 mg/L cannabinoid + 2.5, 1.25 and 0.625 mg/L AgSO4 (each)

SMILES | FICI (MRSA (USA300); [5]) | FICI (MRSA (USA300); [6]) | interaction (interpretation of FICI) (MRSA (USA300); [7]) | interaction (interpretation of FICI) (MRSA (USA300); [8]) | FICI Silver Nanoparticles (E. coli strain K12) | FICI Silver Sulfate (E. coli strain K12) | interaction (interpretation of FICI) (E. coli strain K12; [7]) | interaction (interpretation of FICI) (E. coli strain K12; [9]) | MIC (MRSA (strain USA300) [1]) [µg/mL] | kill-curve effect (CFU) (MRSA (strain USA300) [2]) | time for which bactericidal effect persisted (MRSA (strain USA300) [2]) [h] | MRSA growth by 24 hours (MRSA (strain USA300) [2]; cannabinoid alone at ½×MIC) | combined inhibitory effects compared to ½×MIC combinations (MRSA (strain USA300) [2]) | kill-curve effect (CFU) (MRSA (strain USA300) [2]; [10]) | kill-curve effect (CFU) (MRSA (strain USA300) [2]; [11]) | time through which bactericidal effect persisted (MRSA (strain USA300) [2]; [11]) [h] | antibiotic effect of combination compared with silver nanoparticles alone (MRSA (strain USA 300)) | inhibition of bacterial growth (ring) (MRSA (strain USA 300)) | other results
CCCCCc1cc(O)c2c(c1)OC(C)(CCC=C(C)C)C=C2 (stereo not shown) [CBC, cannabichromene] | 0.141 | 0.375 | synergistic | strongly synergistic | 0.73 | 0.63 | potentiation | potentiation | 8 | nearly identical full bactericidal effect | 24 | full bacterial growth had occurred; also recorded: returned to levels approximating that of 0×MIC treatment | weaker and less durable | strong bactericidal effect | full bactericidal effect | 24 | increased antibiotic effect | some level of inhibition | time of onset of bactericidal effect (MRSA (strain USA300) [2]): ≤ 2 h; duration of bacterial growth inhibition (MRSA (strain USA300) [2]; cannabinoid alone at ½×MIC): 6 h; duration of strong inhibition (MRSA (strain USA300) [2]; cannabinoid ¼×MIC + silver nitrate 1 mg/L): 6 h; kill-curve effect (CFU) (MRSA (strain USA300) [2]; cannabinoid ¼×MIC + silver nitrate 5 and 8 mg/L): Almost identical results; time of onset of bactericidal effect (MRSA (strain USA300) [2]; [11]): 2 h; effect at 24 hours (MRSA (strain USA300) [2]; [12]): strong inhibition of bacterial growth; kill-curve effect (CFU) (MRSA (strain USA300) [2]; [12]): complete bactericidal effect; time for which bactericidal effect remained (MRSA (strain USA300) [2]; [12]): 6 h; time of onset of bactericidal effect (MRSA (strain USA300) [2]; [12]): 2 h; kill-curve effect (CFU) (MRSA (strain USA300) [2]; [13]): fully bactericidal; time of onset of bactericidal effect (MRSA (strain USA300) [2]; [13]): 2 h; time through which bactericidal effect remained (MRSA (strain USA300) [2]; [13]): 24 h; time through which bacterial growth was inhibited (E. coli (strain K12) [3]): 24 h; time through which the effect persisted (E. coli (strain K12) [3]): 24 h; time to the reduction in E. coli CFU (E. coli (strain K12) [3]): ≤ 6 h; time through which E. coli growth was inhibited (E. coli (strain K12) [3]; [14]): 24 h; time to the reduction in E. coli CFU (E. coli (strain K12) [3]; [14]): ≤ 4 h; inhibitory effect on E. coli growth over 24 hours (E. coli (strain K12) [3]; cannabinoid alone, 8 mg/L): failed to achieve any inhibitory effect; inhibition of E. coli growth over 24 hours (E. coli (strain K12) [3]; cannabinoid alone, 16 mg/L): failed to achieve any inhibition; inhibition of E. coli growth (summary) (E. coli (strain K12) [3]; cannabinoid alone, concentrations up to 16 mg/L): fail to achieve any detectable inhibition
CCCCCc1cc(O)c(C/C=C(\C)CCC=C(C)C)c(O)c1C(=O)O [CBGA, cannabigerolic acid] | 0.375 | 0.53 | synergistic | partial synergy | 0.73 | 0.75 | potentiation | potentiation | 4 | nearly identical full bactericidal effect | 24 | returned to levels approximating that of 0×MIC treatment | weaker and less durable | strong bactericidal effect | full bactericidal effect | 24 | increased antibiotic effect | some level of inhibition | inhibition of MRSA growth (MRSA; CBGA at ½ MIC in the agar): strong inhibition of MRSA growth in all wells; antibiotic effect (MRSA; CBGA at ½ MIC in the agar + 20 mg/L silver nanoparticles): strongest antibiotic effect; inhibition of bacterial growth (darkening in the photo) (MRSA; CBGA at ⅛ MIC or ¼ MIC in agar + AgNP 2.5-20 mg/L): concentration dependent darkening; antibiotic effect of combination compared with silver nitrate alone (MRSA (strain USA 300); cannabinoid 2% + silver nitrate 2% silver w/w to PVA): increased antibiotic effect
O=S(=O)([O-])[O-].[Ag+].[Ag+] [silver sulfate] |  |  |  |  |  |  |  |  |  |  |  |  |  |  |  |  |  |  | MIC (E. coli (strain K12) [4]): 2.5 µg/mL; growth inhibition (E. coli (strain K12) [3]; AgSO4 alone): very little inhibitory effects; growth inhibition (E. coli (strain K12) [3]; AgSO4 alone, listed as AgSO4): some initial growth inhibition; bactericidal effects (net reduction in bacterial CFU) (E. coli (strain K12) [3]; AgSO4 alone, 2.5 mg/L): no bactericidal effects; period of inhibition of E. coli growth (E. coli (strain K12) [3]; AgSO4 alone, 2.5 mg/L): 6 h; total increase in bacterial CFU at 24 hours (E. coli (strain K12) [3]; AgSO4 alone, 2.5 mg/L): approximately 1 log; inhibitory effect on E. coli growth (summary) (E. coli (strain K12) [3]; silver sulfate alone at 2.5 mg/L): weak inhibitory effect
